Laboratory results from US20260355331A1, “CEREBLON DEGRADER CONJUGATES, AND USES THEREOF” (GENENTECH, INC., priority 2022, published 2026).

Assays:
proteases = test: protease cleavage of cDAC made with cDLI; format: in vitro ADME; details: presence of proteases; cDAC of cDLI-6 variants
KPL-4 cells (HER2+) = test: cell proliferation assay (CellTiter-Glo), KPL-4; format: cell-based; details: KPL4, 120 h; cereblon degrader compound, 5 days; read-out: IC50 anti-proliferative
From the text: (§1) The CellTiter-Glo® Luminescent Cell Viability Assay is a commercially available (Promega Corp., Madison, WI), homogeneous assay method based on the recombinant expression of Coleoptera luciferase (U.S. Pat. Nos. 5,583,024; 5,674,713; 5,700,670). This cell proliferation assay determines the number of viable cells in culture based on quantitation of the ATP present, an indicator of metabolically active cells (Crouch et al (1993) J. Immunol. Meth. 160:81-88; U.S. Pat. No. 6,602,677). The CellTiter-Glo® Assay was conducted in 96 well format, making it amenable to automated high-throughput screening (HTS) (Cree et al (1995) AntiCancer Drugs 6:398-404). […] Data can be recorded by luminometer or CCD camera imaging device. The luminescence output is expressed as relative light units (RLU). […]
(§2) Efficacy of the cDAC was measured by a cell proliferation assay employing the following protocol ([…] GLO™ Luminescent Cell Viability Assay, Promega Corp. Technical Bulletin TB288; Mendoza et al. (2002) Cancer Res. 62:5485-5488): • 1. […] The plate was incubated at room temperature for 5 minutes to stabilize the luminescence signal. • 8. Luminescence was recorded and reported in graphs as % activity where RLU (relative luminescence units) was normalized to controls (no antibody control minus no cell control). […]

SK-BR-3 cells (HER2+) = test: cell proliferation assay (CellTiter-Glo), SK-BR-3; format: cell-based; details: Homo sapiens, SK-BR-3, 120 h; cereblon degrader compound, 5 days; read-out: IC50 anti-proliferative
From the text: as §1, §2

[1] = stability of cDLI under conjugation conditions; format: physicochemical; details: pH 8.5, 3 and 10 equivalents, 3 hours and overnight; LC/MS
[2] = cDLI stability in whole blood; format: in vitro ADME
[3] = reductive cleavage / release of lenalidomide in a model study; format: in vitro ADME; details: reduction
From the text: The nitro group of para-nitrobenzyloxymethyl lenalidomide cDLI-7 was reduced to amine in a model study. […] The disulfide group of para-nitropyridyl disulfidemethyl lenalidomide cDLI-8 was reduced in a model study.

[4] = release of lenalidomide and hydrolysis of sulfonyl-thio cDLI; format: in vitro ADME; details: with and without methyl adjacent to the glutarimide nitrogen

## 6-(2,5-dioxo-2,5-dihydro-1H-pyrrol-1-yl)-N-((2S)-1-(((2S)-1-((4-((2,6-dioxo-3-(1-oxoisoindolin-2-yl)piperidin-1-yl)methyl)phenyl)amino)-1-oxopropan-2-yl)amino)-3-methyl-1-oxobutan-2-yl)hexanamide [cDLI-6]
proteases
  cleavage by proteases (in words): failed to cleave in the presence of proteases

## Cn1cc2c3c(c[nH]c3c1=O)CN(c1ncc(F)cc1F)c1cc(C(=O)NCCCCCCCNc3cccc4c3CN(C3CCC(=O)NC3=O)C4=O)c(CS(C)(=O)=O)cc1-2 (stereo not drawn) [cD-5, 4-(3,5-difluoropyridin-2-yl)-N-(7-((2-(2,6-dioxopiperidin-3-yl)-1-oxoisoindolin-4-yl)amino)heptyl)-10-methyl-7-((methylsulfonyl)methyl)-11-oxo-3,4,10,11-tetrahydro-1H-1,4,10-triazadibenzo[cd,f]azulene-6-carboxamide]
KPL-4 cells (HER2+)
  IC50: 0.65 nM
SK-BR-3 cells (HER2+)
  IC50: 0.41 nM

## CC(C)(C)OC(=O)Nc1cccc2c1CN(C1CCC(=O)N(C(=O)OCC(C)(C)SS(C)(=O)=O)C1=O)C2=O (stereo not drawn) [cDLI-1, 2-methyl-2-((methylsulfonyl)thio)propyl 3-(4-((tert-butoxycarbonyl)amino)-1-oxoisoindolin-2-yl)-2,6-dioxopiperidine-1-carboxylate]
[1]
  stability under conjugation conditions (in words): too unstable under these conditions for conjugation

## O=C1C=CC(=O)N1CCSN1C(=O)CCC(N2Cc3ccccc3C2=O)C1=O (stereo not drawn) [cDLI-4, 1-((2-(2,5-dioxo-2,5-dihydro-1H-pyrrol-1-yl)ethyl)thio)-3-(1-oxoisoindolin-2-yl)piperidine-2,6-dione]
[2]
  stability in whole blood (in words): not stable in whole blood

## CC(CN1C(=O)C=CC1=O)SN1C(=O)CCC(N2Cc3ccccc3C2=O)C1=O (stereo not drawn) [cDLI-5, 1-((1-(2,5-dioxo-2,5-dihydro-1H-pyrrol-1-yl)propan-2-yl)thio)-3-(1-oxoisoindolin-2-yl)piperidine-2,6-dione]
[2]
  stability in whole blood (in words): not stable in whole blood

## O=C1CCC(N2Cc3ccccc3C2=O)C(=O)N1COCc1ccc([N+](=O)[O-])cc1 (stereo not drawn) [cDLI-7, 1-(((4-nitrobenzyl)oxy)methyl)-3-(1-oxoisoindolin-2-yl)piperidine-2,6-dione]
[3]
  cleavage to release lenalidomide (in words): No cleavage of the para-aminobenzyloxy group was observed

## O=C1CCC(N2Cc3ccccc3C2=O)C(=O)N1CSSc1ccc([N+](=O)[O-])cn1 (stereo not drawn) [cDLI-8, 1-(((5-nitropyridin-2-yl)disulfaneyl)methyl)-3-(1-oxoisoindolin-2-yl)piperidine-2,6-dione]
[3]
  cleavage to release lenalidomide (in words): No cleavage of the disulfide group was observed

## CC(OC(=O)OCN1C(=O)CCC(N2Cc3ccccc3C2=O)C1=O)C(C)SS(C)(=O)=O (stereo not drawn) [cDLI-9, S-(3-((((2,6-dioxo-3-(1-oxoisoindolin-2-yl)piperidin-1-yl)methoxy)carbonyl)oxy)butan-2-yl)methanesulfonothioate]
[1]
  stability under conjugation conditions (in words): Hydrolysis of the carbonate bond was observed
[4]
  release of lenalidomide (in words): cleaved to release detectable lenalidomide
  stability (in words): not stable, generating hydrolysis products

## CC(C)(CSS(C)(=O)=O)OC(=O)OCN1C(=O)CCC(N2Cc3ccccc3C2=O)C1=O (stereo not drawn) [cDLI-10, S-(2-((((2,6-dioxo-3-(1-oxoisoindolin-2-yl)piperidin-1-yl)methoxy)carbonyl)oxy)-2-methylpropyl) methanesulfonothioate]
[1]
  stability under conjugation conditions (in words): Hydrolysis of the carbonate bond was observed
